Measured values from US5043353A, “A80789 polyether antibiotic” (Eli Lilly and Company, priority 1989, dated 1991).
Values after ≈ are worked out from the molar mass of the structure shown. Positions of bridges follow the written chain, without caps; N, C: chain ends. Non-standard residues stand in square brackets, D forms with d. Residues, ends and D or L forms follow the SMILES beside them. *: point of attachment. Ileψ(thiazoline)Cys = CC[C@H](C)[C@H](N)C1=N[C@H](C(=O)*)CS1; dOrn = NCCC[C@@H](N)C(=O)O

Experiments:
[1] = system: Streptococcus faecium X66; experiment: Standard agar-dilution assay, MIC; format: cell-based; conditions: 24-hour incubation, reclassified as Enterococcus faecium X66
Experimental: (§1) The A80789 compounds have antibacterial and anticoccidial activity. A80789 compounds are especially active against anaerobic bacteria. The minimal inhibitory concentrations (MIC's) at which A80789 inhibits various bacteria, as determined by standard agar-dilution assays, are summarized in Tables III and IV. End points were read after 24-hour incubation.

[2] = system: Pseudomonas aeruginosa PS72; experiment: Standard agar-dilution assay, MIC; format: cell-based; conditions: 24-hour incubation
Experimental: as §1

Escherichia coli TEM = experiment: Standard agar-dilution assay, MIC; format: cell-based; conditions: 24-hour incubation
Experimental: as §1

[3] = system: Streptococcus faecalis 2041; experiment: Standard agar-dilution assay, MIC; format: cell-based; conditions: 24-hour incubation, reclassified as Enterococcus faecalis 2041
Experimental: as §1

[4] = system: Streptococcus pyogenes C203; experiment: Standard agar-dilution assay, MIC; format: cell-based; conditions: 24-hour incubation
Experimental: as §1

[5] = system: Staphylococcus epidermidis Epi 1; experiment: Standard agar-dilution assay, MIC; format: cell-based; conditions: EPI1, 24-hour incubation
Experimental: as §1

Escherichia coli N10 = experiment: Standard agar-dilution assay, MIC; format: cell-based; conditions: 24-hour incubation
Experimental: as §1

[6] = system: Staphylococcus aureus X1.1; experiment: Standard agar-dilution assay, MIC; format: cell-based; conditions: 24-hour incubation
Experimental: as §1

[7] = system: Staphylococcus epidermidis 222; experiment: Standard agar-dilution assay, MIC; format: cell-based; conditions: 24-hour incubation
Experimental: as §1

[8] = system: Pseudomonas aeruginosa X528; experiment: Standard agar-dilution assay, MIC; format: cell-based; conditions: 24-hour incubation
Experimental: as §1

[9] = system: Haemophilus influenzae C.L.; experiment: Standard agar-dilution assay, MIC; format: cell-based; conditions: 24-hour incubation
Experimental: as §1

[10] = system: Streptococcus pneumoniae Park 1; experiment: Standard agar-dilution assay, MIC; format: cell-based; conditions: PARK1, 24-hour incubation
Experimental: as §1

[11] = system: Enterobacter aerogenes C32; experiment: Standard agar-dilution assay, MIC; format: cell-based; conditions: Klebsiella aerogenes, 24-hour incubation
Experimental: as §1

Serratia marcescens X99 = experiment: Standard agar-dilution assay, MIC; format: cell-based; conditions: 24-hour incubation
Experimental: as §1

[12] = system: Haemophilus influenzae 76; experiment: Standard agar-dilution assay, MIC; format: cell-based; conditions: 24-hour incubation
Experimental: as §1

Escherichia coli EC14 = experiment: Standard agar-dilution assay, MIC; format: cell-based; conditions: 24-hour incubation
Experimental: as §1

Proteus sp. = experiment: Standard agar-dilution assay, MIC; format: cell-based; conditions: 24-hour incubation
Experimental: as §1

[13] = system: Enterobacter aerogenes EB17; experiment: Standard agar-dilution assay, MIC; format: cell-based; conditions: Klebsiella aerogenes, 24-hour incubation
Experimental: as §1

[14] = system: Staphylococcus aureus X400; experiment: Standard agar-dilution assay, MIC; format: cell-based; conditions: 24-hour incubation
Experimental: as §1

[15] = system: Staphylococcus aureus S13E; experiment: Standard agar-dilution assay, MIC; format: cell-based; conditions: 24-hour incubation
Experimental: as §1

[16] = system: Pseudomonas aeruginosa PS18; experiment: Standard agar-dilution assay, MIC; format: cell-based; conditions: 24-hour incubation
Experimental: as §1

Salmonella sp = experiment: Standard agar-dilution assay, MIC; format: cell-based; conditions: 24-hour incubation
Experimental: as §1

[17] = system: Staphylococcus aureus V41; experiment: Standard agar-dilution assay, MIC; format: cell-based; conditions: 24-hour incubation
Experimental: as §1

Shigella sonnei = experiment: Standard agar-dilution assay, MIC; format: cell-based; conditions: 24-hour incubation
Experimental: as §1

Klebsiella sp. = experiment: Standard agar-dilution assay, MIC; format: cell-based; conditions: 24-hour incubation
Experimental: as §1

[18] = system: Pseudomonas aeruginosa X239; experiment: Standard agar-dilution assay, MIC; format: cell-based; conditions: 24-hour incubation
Experimental: as §1

Great Lakes influenza = experiment: microbe, parasite or virus in culture; format: cell-based; conditions: read-out: level at which active
Rhino viruses = experiment: microbe, parasite or virus in culture; format: cell-based; conditions: tissue-culture tests; read-out: level at which active
adult housefly = experiment: Insecticidal activity; format: in vivo
Excerpt: The A80789 compounds are also useful as insecticides. For example, A80789 is active against adult housefly at levels as low as 100 ppm.

Pseudorabies virus = experiment: microbe, parasite or virus in culture; format: cell-based; conditions: Suid alphaherpesvirus 1, read-out: level at which active
Eimeria acervulina = experiment: Feeding experiments in infected chicks; format: in vivo; conditions: in the feed of young chickens; chicks infected with Eimeria acervulina
Solubility = format: physicochemical; conditions: free acid form
Vaccina = experiment: microbe, parasite or virus in culture; format: cell-based; conditions: tissue-culture tests; read-out: level at which active
[19] = system: Bacteroides fragilis 1936B; experiment: Standard agar-dilution assay, MIC (anaerobic bacteria); format: cell-based; conditions: 24-hour incubation
Experimental: as §1

[20] = system: Peptostreptococcus anaerobius 1428; experiment: as above; format: cell-based; conditions: 24-hour incubation
Experimental: as §1

Bacteroides fragilis 111 = experiment: as above; format: cell-based; conditions: 24-hour incubation
Experimental: as §1

Peptococcus prevoti 1281 = experiment: as above; format: cell-based; conditions: 24-hour incubation
Experimental: as §1

[21] = system: Propionibacterium acnes 79; experiment: as above; format: cell-based; conditions: Cutibacterium acnes, 24-hour incubation
Experimental: as §1

[22] = system: Peptococcus asaccharolyticus 1302; experiment: as above; format: cell-based; conditions: Peptoniphilus asaccharolyticus, 24-hour incubation
Experimental: as §1

[23] = system: Eubacterium aerofaciens 1235; experiment: as above; format: cell-based; conditions: Collinsella aerofaciens, 24-hour incubation
Experimental: as §1

[24] = system: Bacteroides melaninogenicus 1856/28; experiment: as above; format: cell-based; conditions: Prevotella intermedia, 24-hour incubation
Experimental: as §1

[25] = system: Bacteroides melaninogenicus 2736; experiment: as above; format: cell-based; conditions: 24-hour incubation
Experimental: as §1

[26] = system: Clostridium septicum 1128; experiment: as above; format: cell-based; conditions: 24-hour incubation
Experimental: as §1

[27] = system: Bacteroides vulgatis 1211; experiment: as above; format: cell-based; conditions: 24-hour incubation
Experimental: as §1

[28] = system: Bacteroides fragilis 1877; experiment: as above; format: cell-based; conditions: 24-hour incubation
Experimental: as §1

[29] = system: Clostridium difficile 2994; experiment: as above; format: cell-based; conditions: Clostridioides difficile, 24-hour incubation
Experimental: as §1

[30] = system: Bacteroides corredens 1874; experiment: as above; format: cell-based; conditions: 24-hour incubation
Experimental: as §1

[31] = system: Bacteroides thetaiotaomicron 1438; experiment: as above; format: cell-based; conditions: 24-hour incubation
Experimental: as §1

[32] = system: Fusobacterium symbiosum 1470; experiment: as above; format: cell-based; conditions: 24-hour incubation
Experimental: as §1

[33] = system: Fusobacterium necrophorum 6054A; experiment: as above; format: cell-based; conditions: 24-hour incubation
Experimental: as §1

[34] = system: Peptostreptococcus intermedius 1264; experiment: as above; format: cell-based; conditions: 24-hour incubation
Experimental: as §1

[35] = system: Clostridium perfringens 81; experiment: microbe, parasite or virus in culture; format: cell-based; conditions: Clostridium perfringens, 81, 24 h
HSV II = experiment: microbe, parasite or virus in culture; format: cell-based, Herpes (HSV II); conditions: tissue-culture tests; read-out: level at which active
HSV I = experiment: microbe, parasite or virus in culture; format: cell-based, Herpes (HSV I); conditions: read-out: level at which active
Para influenza = experiment: microbe, parasite or virus in culture; format: cell-based; conditions: read-out: level at which active
Culture A80789 = experiment: Antibiotic sensitivity disc test on the producing culture; format: cell-based, Streptomyces hygroscopicus; conditions: ISP No. 2 agar
Experimental: Resistance to antibiotics was measured by padding antibiotic sensitivity discs onto the surface of seeded ISP No. 2 agar plates. Resistance was scored as (+) when no zone of inhibition was observed and as (-) when a zone of inhibition was observed.

COC1CCC(OC2C(C)C3(OC(CC4OC(O)(C(C)C(=O)O)C(C)C(OC)C4C)CC(OC)C3C)OC2(C)C2CCC(C3CCC(C4OC(C)(O)C(C)CC4C)O3)O2)OC1C (stereo not shown) [A80789]
MIC [1]: > 128 µg/mL | MIC [2]: > 128 µg/mL | MIC (Escherichia coli TEM): > 128 µg/mL | MIC [3]: > 128 µg/mL | MIC [4]: 0.03 µg/mL (≈ 0.0339 µM) | MIC [5]: 0.25 µg/mL (≈ 0.282 µM) | MIC (Escherichia coli N10): > 128 µg/mL | MIC [6]: 0.25 µg/mL (≈ 0.282 µM) | MIC [7]: 0.125 µg/mL (≈ 0.141 µM) | MIC [8]: > 128 µg/mL | MIC [9]: > 128 µg/mL | MIC [10]: 0.03 µg/mL (≈ 0.0339 µM) | MIC [11]: > 128 µg/mL | MIC (Serratia marcescens X99): > 128 µg/mL | MIC [12]: > 128 µg/mL | MIC (Escherichia coli EC14): > 128 µg/mL | MIC (Proteus sp.): > 128 µg/mL | MIC [13]: > 128 µg/mL | MIC [14]: 0.25 µg/mL (≈ 0.282 µM) | MIC [15]: 0.25 µg/mL (≈ 0.282 µM) | MIC [16]: > 128 µg/mL | MIC (Salmonella sp): > 128 µg/mL | MIC [17]: 0.25 µg/mL (≈ 0.282 µM) | MIC (Shigella sonnei): > 128 µg/mL | MIC (Klebsiella sp.): > 128 µg/mL | MIC [18]: > 128 µg/mL | minimal effective concentration (Great Lakes influenza): 2000 µg/mL | minimal effective concentration (Rhino viruses): 2000 µg/mL | level (as low as) at which active (adult housefly): 100 ppm | minimal effective concentration (Pseudorabies virus): < 0.078 µg/mL | level in feed (as low as) that caused a reduction in the number of lesions (Eimeria acervulina): 100 ppm | Solubility (Solubility; in water): Insoluble | Solubility (Solubility; lower alcohols such as methanol, acetone, ethyl acetate, chloroform, diethyl ether, benzene, toluene, warm hexane): soluble | minimal effective concentration (Vaccina): 2000 µg/mL | MIC [19]: 8 µg/mL (≈ 9.04 µM) | MIC [20]: 0.25 µg/mL (≈ 0.282 µM) | MIC (Bacteroides fragilis 111): 8 µg/mL (≈ 9.04 µM) | MIC (Peptococcus prevoti 1281): 0.125 µg/mL (≈ 0.141 µM) | MIC [21]: 0.25 µg/mL (≈ 0.282 µM) | MIC [22]: ≤ 0.03 µg/mL | MIC [23]: 0.5 µg/mL (≈ 0.565 µM) | MIC [24]: 4 µg/mL (≈ 4.52 µM) | MIC [25]: 8 µg/mL (≈ 9.04 µM) | MIC [26]: 0.5 µg/mL (≈ 0.565 µM) | MIC [27]: 1 µg/mL (≈ 1.13 µM) | MIC [28]: 8 µg/mL (≈ 9.04 µM) | MIC [29]: 0.5 µg/mL (≈ 0.565 µM) | MIC [30]: 8 µg/mL (≈ 9.04 µM) | MIC [31]: 128 µg/mL (≈ 145 µM) | MIC [32]: 2 µg/mL (≈ 2.26 µM) | MIC [33]: 2 µg/mL (≈ 2.26 µM) | MIC [34]: 0.125 µg/mL (≈ 0.141 µM) | MIC [35]: 0.5 µg/mL (≈ 0.565 µM) | minimal effective concentration (HSV II): 2000 µg/mL | minimal effective concentration (HSV I): 2000 µg/mL | minimal effective concentration (Para influenza): 2000 µg/mL

CC[C@H](C)[C@H](N)C1=N[C@H](C(=O)N[C@@H](CC(C)C)C(=O)N[C@H](CCC(=O)O)C(=O)N[C@H](C(=O)N[C@H]2CCCCNC(=O)[C@H](CC(N)=O)NC(=O)[C@@H](CC(=O)O)NC(=O)[C@H](Cc3cnc[nH]3)NC(=O)[C@@H](Cc3ccccc3)NC(=O)[C@H]([C@@H](C)CC)NC(=O)[C@@H](CCCN)NC2=O)[C@@H](C)CC)CS1 [bacitracin] ({Ileψ(thiazoline)Cys}-L[dE]IK[dOrn]I[dF]H[dD]N; lactam 4-C)
Resistance of culture to antibiotic (Culture A80789; disc 10 units): sensitive

CC(=O)OCC1=C(C(=O)O)N2C(=O)[C@@H](NC(=O)Cc3cccs3)[C@H]2SC1 [cephalothin]
Resistance of culture to antibiotic (Culture A80789; disc 30 mcg): sensitive

CCC[C@@H]1C[C@@H](C(=O)N[C@@H]([C@H]2O[C@H](SC)[C@H](O)[C@@H](O)[C@H]2O)[C@@H](C)O)N(C)C1 [lincomycin]
Resistance of culture to antibiotic (Culture A80789; disc 2 mcg): resistant

CO[C@H]1C[C@H](O[C@H]2[C@H](C)[C@@H](O[C@@H]3O[C@H](C)C[C@H](N(C)C)[C@H]3O)[C@@H](C)C[C@@]3(CO3)C(=O)[C@H](C)[C@@H](O)[C@@H](C)[C@@H](C)OC(=O)[C@@H]2C)O[C@@H](C)[C@@H]1O [oleandomycin]
Resistance of culture to antibiotic (Culture A80789; disc 15 mcg): sensitive

CC1(C)S[C@@H]2[C@H](NC(=O)Cc3ccccc3)C(=O)N2[C@H]1C(=O)O [penicillin G]
Resistance of culture to antibiotic (Culture A80789; disc 10 units): resistant
